Values of other authors, collected in publication PMC9747611 (Hypertension Research, 2022).

System: aldosterone synthase
Conditions: cited from earlier work

## N#Cc1ccc([C@H]2CCc3cncn32)c(F)c1 [LCI699]
  increase in 11-deoxycorticosterone levels: up to 10 fold
